The experiment relates to MMP13. Put plainly: Gene expression profile using RTQ-PCR: MMP13. The conditions noted are these: 3 μM. Type of experiment: cell-based, human. The procedure: The effect of the compound of example 7 was measured in stimulated untreated cells from the monocytic cell line (THP-1), human monocytes and synovial cells from rheumatoid arthritis patient. The effect of the compound in the THP-1 cell line was measured in terms of gene expression and was expressed as fold changes as compared to the cell stimulated control with no drug treatment.
THP-1 cells, human monocytes and synovial cells were treated with compound of example 7 or vehicle (0.5% DMSO). Total RNA isolation using a commercial RNA extraction kit (Qiagen Corporation, Germany) The first-strand cDNA was synthesized from total RNA using first strand cDNA synthesis kit from Invitrogen Corporation (California, USA). This was followed by real time quantitative polymerase chain reaction (RTQ PCR) using gene specific primers and standard thermal program of initial denaturation at 95° C. for 5 min and cycles of 95° C. for 10 seconds, followed by 60° C. for 30 seconds (Realplex PCR machine from Eppendorf, Germany). Quantitative measurement of products made during PCR cycles was normalized against a housekeeping gene (Actin) and was used to measure the gene expression as fold changes as compared to respective control.

SMILES strings stand for the structures.

`C/C=C/C(O)C(C)/C=C/C(=N\O)C(C)C(O)C(C)C1OC(=O)/C(OC)=C/C(C)=C/C(C)C(O)C(CC)C(O)C(C)C/C(C)=C/C=C/C1OC` (stereo not drawn) [Compound of example 7, (3Z,5E,13E,15E)-18-((5Z,6E,10E)-3,9-Dihydroxy-5-(hydroxymino)-4,8-dimethyldodeca-6,10-dien-2-yl)-9-ethyl-8,10-dihydroxy-3,17-dimethoxy-5,7,11,13-tetramethyl oxacyclooctadeca-3,5,13,15-tetraen-2-one]: the MMP13 gene expression is listed as −2.2 + 2.0 log fold change (Human monocytes, 3 h, ± SE, N = 3); −4.0 log fold change (Synovial cells, 12 h, N = 1); −4.1 + 3.5 log fold change (THP-1 cells, 12 h, ± SE, N = 3).

Source of the values: patent US20120225889A1, “USE OF MACROCYCLIC LACTONE DERIVATIVES FOR THE TREATMENT OF INFLAMMATORY DISORDERS” (PIRAMAL LIFE SCIENCES LIMITED, priority 2010, published 2012).
